Laboratory results taken from patent publication US20220112479A1, “COMPOUNDS STABILIZING AMYLASES IN LIQUIDS” (BASF SE, priority 2018, published 2022).

Assays:
Assay type in all cases: biochemical
[1] = tested on: Amy3=Stainzyme Plus L (12L); test: amylase storage stability in liquid formulation (pNP release from Ethyliden-blocked-pNPG7); conditions: base formulation II., 1.5 wt % component (a), storage at 37° C.
Procedure, shortened: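 Liquid formulations with amylase (as active protein) stored at 37 °C and sampled at intervals. Activity measured as pNP release (405 nm) from ethylidene-blocked pNPG7 with excess α-glucosidase, Termamyl standard; expressed relative to reference formulation at time 0.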

Savinase Ultra 16.0L = target: T1, Savinase Ultra 16.0L (Lederbergia lenta, UniProt P29600); test: protease storage stability in liquid formulation (Suc-AAPF-pNA substrate); conditions: storage at 37° C.
T1 construct: purchased Sigma-Aldrich
T1 sequence (P29600 1-269): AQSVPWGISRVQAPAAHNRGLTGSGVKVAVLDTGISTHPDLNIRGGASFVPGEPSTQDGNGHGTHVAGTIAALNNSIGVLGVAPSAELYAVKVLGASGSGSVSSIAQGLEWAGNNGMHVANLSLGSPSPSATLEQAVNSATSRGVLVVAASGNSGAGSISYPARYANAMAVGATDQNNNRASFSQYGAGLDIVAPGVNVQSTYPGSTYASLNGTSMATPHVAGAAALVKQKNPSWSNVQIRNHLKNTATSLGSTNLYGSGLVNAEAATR
Procedure, shortened: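 Savinase in liquid base formulations containing test salt, comparative compound or diethylene glycol; amounts given as active protein. Residual activity at set storage times measured with Suc-AAPF-pNA via pNA release at OD405, 20 °C. Activity expressed relative to reference formulation at time 0.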

Amylase = test: amylase storage stability in liquid laundry formulation (pNP release from Ethyliden-blocked-pNPG7); parameters: key: % of activity in reference formulation at time 0; conditions: laundry base formulation VII. (2.0 EDTA), 2.5 wt % component (a), storage at 37° C.
Procedure, shortened: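 Amylase stored in liquid laundry base formulations at 37° C, activity sampled over time. Activity measured as pNP release (A405) from ethylidene-blocked pNPG7 with excess α-glucosidase; values expressed relative to the reference formulation at time 0.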

Diethylcitrate [A.7]
amylase activity, referring to reference formulation at time 0 ([1]; 3 d): 94 | amylase activity, referring to reference formulation at time 0 ([1]; 7 d): 86 | amylase activity, referring to reference formulation at time 0 ([1]; 14 d): 82 | amylase activity, referring to reference formulation at time 0 ([1]; 21 d): 72 | amylase activity, referring to reference formulation at time 0 ([1]; 28 d): 64 | amylase activity, referring to reference formulation at time 0 ([1]; 42 d): 53 | amylase activity, referring to reference formulation at time 0 ([1]; T0): 99 | protease activity, referring to reference formulation at time 0 (Savinase Ultra 16.0L; base formulation I., 1.5 wt % component (a), 3 d): 94 | protease activity, referring to reference formulation at time 0 (Savinase Ultra 16.0L; base formulation I., 1.5 wt % component (a), 7 d): 91 | protease activity, referring to reference formulation at time 0 (Savinase Ultra 16.0L; base formulation I., 1.5 wt % component (a), 14 d): 85 | protease activity, referring to reference formulation at time 0 (Savinase Ultra 16.0L; base formulation I., 1.5 wt % component (a), 21 d): 81 | protease activity, referring to reference formulation at time 0 (Savinase Ultra 16.0L; base formulation I., 1.5 wt % component (a), 28 d): 76 | protease activity, referring to reference formulation at time 0 (Savinase Ultra 16.0L; base formulation I., 1.5 wt % component (a), 42 d): 63 | protease activity, referring to reference formulation at time 0 (Savinase Ultra 16.0L; base formulation I., 1.5 wt % component (a), T0): 100 | protease activity, referring to reference formulation at time 0 (Savinase Ultra 16.0L; base formulation II., 1.5 wt % component (a), 3 d): 98 | protease activity, referring to reference formulation at time 0 (Savinase Ultra 16.0L; base formulation II., 1.5 wt % component (a), 7 d): 93 | protease activity, referring to reference formulation at time 0 (Savinase Ultra 16.0L; base formulation II., 1.5 wt % component (a), 14 d): 88 | protease activity, referring to reference formulation at time 0 (Savinase Ultra 16.0L; base formulation II., 1.5 wt % component (a), 21 d): 85 | protease activity, referring to reference formulation at time 0 (Savinase Ultra 16.0L; base formulation II., 1.5 wt % component (a), 28 d): 80 | protease activity, referring to reference formulation at time 0 (Savinase Ultra 16.0L; base formulation II., 1.5 wt % component (a), 42 d): 71 | protease activity, referring to reference formulation at time 0 (Savinase Ultra 16.0L; base formulation II., 1.5 wt % component (a), T0): 100 | protease activity, referring to reference formulation at time 0 (Savinase Ultra 16.0L; base formulation III., 1.5 wt % component (a), 3 d): 97 | protease activity, referring to reference formulation at time 0 (Savinase Ultra 16.0L; base formulation III., 1.5 wt % component (a), 7 d): 95 | protease activity, referring to reference formulation at time 0 (Savinase Ultra 16.0L; base formulation III., 1.5 wt % component (a), 14 d): 92 | protease activity, referring to reference formulation at time 0 (Savinase Ultra 16.0L; base formulation III., 1.5 wt % component (a), 21 d): 87 | protease activity, referring to reference formulation at time 0 (Savinase Ultra 16.0L; base formulation III., 1.5 wt % component (a), 28 d): 74 | protease activity, referring to reference formulation at time 0 (Savinase Ultra 16.0L; base formulation III., 1.5 wt % component (a), 42 d): 64 | protease activity, referring to reference formulation at time 0 (Savinase Ultra 16.0L; base formulation III., 1.5 wt % component (a), T0): 100 | protease activity, referring to reference formulation at time 0 (Savinase Ultra 16.0L; base formulation IV., 2.0 wt % component (a), 3 d): 96 | protease activity, referring to reference formulation at time 0 (Savinase Ultra 16.0L; base formulation IV., 2.0 wt % component (a), 7 d): 88 | protease activity, referring to reference formulation at time 0 (Savinase Ultra 16.0L; base formulation IV., 2.0 wt % component (a), 14 d): 79 | protease activity, referring to reference formulation at time 0 (Savinase Ultra 16.0L; base formulation IV., 2.0 wt % component (a), 21 d): 74 | protease activity, referring to reference formulation at time 0 (Savinase Ultra 16.0L; base formulation IV., 2.0 wt % component (a), 28 d): 68 | protease activity, referring to reference formulation at time 0 (Savinase Ultra 16.0L; base formulation IV., 2.0 wt % component (a), 42 d): 62 | protease activity, referring to reference formulation at time 0 (Savinase Ultra 16.0L; base formulation IV., 2.0 wt % component (a), T0): 98 | protease activity, referring to reference formulation at time 0 (Savinase Ultra 16.0L; base formulation V., 2.0 wt % component (a), 3 d): 93 | protease activity, referring to reference formulation at time 0 (Savinase Ultra 16.0L; base formulation V., 2.0 wt % component (a), 7 d): 88 | protease activity, referring to reference formulation at time 0 (Savinase Ultra 16.0L; base formulation V., 2.0 wt % component (a), 14 d): 79 | protease activity, referring to reference formulation at time 0 (Savinase Ultra 16.0L; base formulation V., 2.0 wt % component (a), 21 d): 72 | protease activity, referring to reference formulation at time 0 (Savinase Ultra 16.0L; base formulation V., 2.0 wt % component (a), 28 d): 66 | protease activity, referring to reference formulation at time 0 (Savinase Ultra 16.0L; base formulation V., 2.0 wt % component (a), 42 d): 54 | protease activity, referring to reference formulation at time 0 (Savinase Ultra 16.0L; base formulation V., 2.0 wt % component (a), T0): 97 | amylase activity, referring to reference formulation at time 0 (Amylase; 3 d): 90 | amylase activity, referring to reference formulation at time 0 (Amylase; 7 d): 82 | amylase activity, referring to reference formulation at time 0 (Amylase; 14 d): 69 | amylase activity, referring to reference formulation at time 0 (Amylase; 21 d): 62 | amylase activity, referring to reference formulation at time 0 (Amylase; 28 d): 56 | amylase activity, referring to reference formulation at time 0 (Amylase; T0): 99
